Experimental data: article PMC9976286, “Combination of In Silico and In Vitro Screening to Identify Novel Glutamate Carboxypeptidase II Inhibitors” (Journal of Chemical Information and Modeling, 2023)
Several values for one entry are separate records, joined by “and”; a condition that tells them apart may be missing. Equal entries are not always repeated. Where two headings read alike, the source gives them in different places.

Legend:
Recombinant human GCPII [1] = molecular target: T1, Recombinant human GCPII (Homo sapiens, UniProt Q04609); assay: In vitro GCPII inhibition assay, fluorescence-based, RP-HPLC readout (screening at 20 μM and IC50); type: biochemical; conditions: for IC50: substrate concentration at KM (100 nM Glu-Glu dipeptide labeled with fluorescein)
T1 construct: made in house
Experimental: The inhibitory potency of the selected compounds against GCPII was determined using a fluorescence-based assay developed in-house. Recombinant human GCPII purified as described previously[40],[41] (final concentration 0.02 nM) was preincubated with 20 μM test compound for the screening in 50 mM Tris-HCl, 150 mM NaCl, 0.001% C12E8 at 37 °C for 10 min. The reaction was initiated by the addition of 100 nM Glu-Glu dipeptide labeled with fluorescein (substrate)[42] in a total volume of 50 μL. Following 15 min incubation, the reaction was terminated by the addition of 5 μL of 0.1% TFA in 5% acetonitrile. […] The data were fitted using the GraphPad Prism software, and IC50 values were calculated from the inhibition curves of two independent experiments using a nonlinear analysis protocol.

Recombinant human GCPII [2] = molecular target: T1, Recombinant human GCPII; assay: GCPII IC50 with substrate concentration 10x above KM (mode of inhibition); type: biochemical; conditions: for Increase of GCPII IC50 at 10x KM substrate versus KM: IC50 at 1 μM substrate relative to IC50 at 100 nM substrate; for IC50: substrate concentration 10 times above KM (1 μM)
Experimental: The inhibitory potency of the selected compounds against GCPII was determined using a fluorescence-based assay developed in-house. Recombinant human GCPII purified as described previously[40],[41] (final concentration 0.02 nM) was preincubated with 20 μM test compound for the screening in 50 mM Tris-HCl, 150 mM NaCl, 0.001% C12E8 at 37 °C for 10 min. […] Following 15 min incubation, the reaction was terminated by the addition of 5 μL of 0.1% TFA in 5% acetonitrile. Reaction mixtures were then analyzed by RP-HPLC with a Kinetex 2.6 μm XB-C18 100 Å column with a fluorescence detector set to λEX/λEM = 492/516. The GCPII inhibition in the SPECS hits samples was calculated using the noninhibited reaction as a control. Inhibition constants of the compounds active in the in vitro screening were determined using increasing concentrations of inhibitors. The data were fitted using the GraphPad Prism software, and IC50 values were calculated from the inhibition curves of two independent experiments using a nonlinear analysis protocol.

Recombinant human HDAC10 = molecular target: T2, Recombinant human HDAC10 (Homo sapiens, UniProt Q969S8); assay: Inhibitor specificity: fluorescence-based HDAC10 activity assay; type: biochemical; conditions: for HDAC10 inhibition (in words): off-target specificity
T2 construct: made in house
T2 sequence (Q969S8 1-669): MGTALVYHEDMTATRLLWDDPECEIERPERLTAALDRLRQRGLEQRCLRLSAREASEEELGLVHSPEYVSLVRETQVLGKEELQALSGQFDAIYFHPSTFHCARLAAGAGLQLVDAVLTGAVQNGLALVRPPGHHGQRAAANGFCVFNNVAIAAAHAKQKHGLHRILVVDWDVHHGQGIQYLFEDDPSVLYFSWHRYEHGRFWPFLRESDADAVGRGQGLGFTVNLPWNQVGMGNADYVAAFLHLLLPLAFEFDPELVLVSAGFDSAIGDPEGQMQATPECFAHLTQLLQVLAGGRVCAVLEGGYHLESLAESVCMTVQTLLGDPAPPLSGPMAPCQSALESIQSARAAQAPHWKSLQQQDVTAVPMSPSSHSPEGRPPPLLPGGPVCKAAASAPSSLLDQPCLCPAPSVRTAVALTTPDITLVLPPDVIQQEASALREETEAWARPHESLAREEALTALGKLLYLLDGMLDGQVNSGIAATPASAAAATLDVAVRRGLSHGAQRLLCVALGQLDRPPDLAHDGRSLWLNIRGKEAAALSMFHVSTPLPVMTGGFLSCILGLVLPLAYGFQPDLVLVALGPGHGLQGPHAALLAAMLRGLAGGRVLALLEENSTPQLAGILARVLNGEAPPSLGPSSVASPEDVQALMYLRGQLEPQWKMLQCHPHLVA
Experimental: The fluorescence-based activity assay used was developed in-house. Recombinant human HDAC10 purified as described previously[43] (0.5 nM) was preincubated with dilution series of compounds in 50 mM 4-(2-hydroxyethyl)-1-piperazineethanesulfonic acid (HEPES), 140 mM NaCl, 10 mM KCl, 2 mg/mL bovine serum albumin (BSA), and 1 mM tris(2-carboxyethyl) phosphine, pH 7.4 at 37 °C for 10 min. The reaction was initiated by the addition of a 10 μM substrate (spermidine labeled with fluorescein, provided by the group of Prof. Mike Schutkowski)[43] in a total volume of 50 μL. Following 30-min incubation, the reaction was terminated by the addition of 5 μL of 0.5% acetic acid and centrifuged at 2000g at room temperature for 15 min to remove precipitated BSA. […] The HDAC10 inhibition was calculated using the noninhibited reaction as a control. Inhibition constants of the compounds were determined using increasing concentrations of inhibitors. The data were fitted using the GraphPad Prism software,[44] and IC50 values were calculated from the inhibition curves of two independent experiments using a nonlinear analysis protocol.

GCPII = conditions: cited from earlier work; for Ki: read-out: Ki[nM] (54 actives, PDB ID)
[3] = read-out: GCPII IC50 at substrate concentration 10 times above the KM
[4] = 10 μM fluorescein-labeled spermidine substrate, read-out: HDAC10 IC50
[5] = listed by ChEMBL ID or PDB ID, read-out: GCPII IC50 (Fig. S20, inhibitors with subnanomolar activities)
[6] = dataset of 54 GCPII ligands compiled from the PDB, read-out: IC50[nM] (54 actives, PDB ID)
[7] = dataset of 54 GCPII ligands compiled from the PDB

T1 sequence (Q04609 whole entry): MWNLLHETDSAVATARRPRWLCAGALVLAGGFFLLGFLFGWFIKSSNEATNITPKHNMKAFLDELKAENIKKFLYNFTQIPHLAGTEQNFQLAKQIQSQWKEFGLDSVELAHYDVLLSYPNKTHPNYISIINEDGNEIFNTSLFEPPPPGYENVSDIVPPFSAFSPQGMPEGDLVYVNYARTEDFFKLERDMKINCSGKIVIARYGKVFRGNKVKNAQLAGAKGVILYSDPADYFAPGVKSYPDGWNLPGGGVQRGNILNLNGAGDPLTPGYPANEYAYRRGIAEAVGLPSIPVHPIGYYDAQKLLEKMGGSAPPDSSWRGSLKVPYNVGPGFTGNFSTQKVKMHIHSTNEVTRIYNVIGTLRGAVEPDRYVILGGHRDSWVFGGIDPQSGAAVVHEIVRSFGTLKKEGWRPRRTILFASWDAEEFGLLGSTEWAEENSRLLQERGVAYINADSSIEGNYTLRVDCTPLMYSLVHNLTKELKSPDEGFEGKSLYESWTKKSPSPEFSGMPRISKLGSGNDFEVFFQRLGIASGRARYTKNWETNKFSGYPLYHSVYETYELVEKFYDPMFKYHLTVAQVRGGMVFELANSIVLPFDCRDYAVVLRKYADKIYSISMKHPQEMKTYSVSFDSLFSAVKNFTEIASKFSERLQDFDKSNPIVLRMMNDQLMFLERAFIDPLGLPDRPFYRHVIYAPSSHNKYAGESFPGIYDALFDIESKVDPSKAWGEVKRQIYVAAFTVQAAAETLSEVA

**Q.** What does the source list for `O=[N+]([O-])c1ccc(C(CCc2nnn[nH]2)(CCc2nnn[nH]2)c2nnn[nH]2)cc1` [Compound 18]?
**A.** inhibition at 20 µM (Recombinant human GCPII [1]; compound at 20 μM, 100 nM fluorescein-labeled Glu-Glu dipeptide substrate, read-out: Inhibition [%] of GCPII activity): > 50%; IC50 (Recombinant human GCPII [1]): 15000 nM; Increase of GCPII IC50 at 10x KM substrate versus KM (Recombinant human GCPII [2]): approximately twice; IC50 (Recombinant human GCPII [2]; read-out: GCPII IC50 10x > KM): 27600 nM; IC50 (Recombinant human GCPII [2]; [3]): > 20000 nM; IC50 (Recombinant human HDAC10; [4]): > 100000 nM; HDAC10 inhibition (in words) (Recombinant human HDAC10): did not exhibit any HDAC10 inhibition

**Q.** What does the source list for `O=C(O)c1ccccc1-c1c2ccc(=O)c(I)c-2oc2c(I)c(OS(=O)(=O)c3ccc(Br)cc3)ccc12` [Compound 46]?
**A.** IC50 (Recombinant human GCPII [1]): 353 ± 24 nM; Increase of GCPII IC50 at 10x KM substrate versus KM (Recombinant human GCPII [2]): 4 fold; IC50 (Recombinant human GCPII [2]; read-out: GCPII IC50 10x > KM): 1350 nM; IC50 (Recombinant human GCPII [2]; [3]): 1400 ± 100 nM; IC50 (Recombinant human HDAC10; HDAC10 IC50, 10 μM fluorescein-labeled spermidine substrate): > 100000 nM; HDAC10 inhibition (in words) (Recombinant human HDAC10): did not exhibit any HDAC10 inhibition

**Q.** For `O=C(O)CSC1=C(SCC(=O)O)C(=O)C(SCC(=O)O)=C(SCC(=O)O)C1=O` [Compound 17], which IC50 (Recombinant human GCPII [1]) is on record?
**A.** 4500 nM and 4510 nM

**Q.** And the “Increase of GCPII IC50 at 10x KM substrate versus KM” value (Recombinant human GCPII [2])?
**A.** approximately twice

**Q.** And the IC50 (Recombinant human GCPII [2]; read-out: GCPII IC50 10x > KM)?
**A.** 9390 nM

**Q.** What about the IC50 (Recombinant human GCPII [2]; [3]) of the same compound?
**A.** 9400 ± 100 nM

**Q.** What about the IC50 (Recombinant human HDAC10; [4]) of the same compound?
**A.** 2210 nM and 2200 nM

**Q.** For `O=C(O)CC[C@H](NC(=O)N[C@@H](CCCC(=O)Nc1cccc(F)c1)C(=O)O)C(=O)O` [CHEMBL4277729], which IC50 (GCPII; [5]) is on record?
**A.** 0.28 nM

**Q.** For `O=C(O)CC[C@H](NC(=O)N[C@@H](CSCc1ccc(F)cc1)C(=O)O)C(=O)O` [Compound 3D7D], which IC50 (GCPII; [6]) is on record?
**A.** 14 nM

**Q.** With `O=C(N[C@@H](CCCCNC(=O)c1ccc(I)cc1)C(=O)O)N[C@@H](C[C@H]1CO1)C(=O)O` [Compound 4OC1] as the compound, how does the Ki (GCPII; [7]) read?
**A.** 254 nM

**Q.** For `CC(C)[C@H](NC(=O)c1ccc(F)cc1)C(=O)N[C@@H](CO[P@@](=O)(O)N[C@@H](CCC(=O)O)C(=O)O)C(=O)O` [Compound 4P45], which IC50 (GCPII; [6]) is on record?
**A.** 16 nM

**Q.** Which IC50 (GCPII; [6]) does the source give for `O=C(O)CC[C@H](NC(=O)N[C@@H](CCCC(=O)Nc1ccc(F)nc1)C(=O)O)C(=O)O` [Compound 6HKJ] here?
**A.** 0.99 nM

**Q.** With `C#CC[C@H](NC(=O)N[C@@H](CCCCNC(=O)c1ccc(I)cc1)C(=O)O)C(=O)O` [Compound 4OC2] as the compound, how does the Ki (GCPII; [7]) read?
**A.** 5.3 nM

**Q.** Which IC50 (GCPII; [6]) does the source give for `O=C(CC[C@H](Cc1ccc(C(=O)O)cc1)C(=O)O)NO` [Compound 5ELY] here?
**A.** 44 nM

**Q.** Which IC50 (GCPII; [6]) does the source give for `CN(C(=O)CCC[C@H](NC(=O)N[C@@H](CCC(=O)O)C(=O)O)C(=O)O)c1ccc(F)nc1` [Compound 6H7Z] here?
**A.** 0.13 nM

**Q.** With `O=C(O)CC[C@H](NC(=O)N[C@@H](CCCC(=O)NCc1ccc(F)cc1)C(=O)O)C(=O)O` [Compound 5OF0] as the compound, how does the IC50 (GCPII; [6]) read?
**A.** 2.32 nM

**Q.** Which Ki (GCPII; [7]) does the source give for `O=C(N[C@@H](CCCCNC(=O)c1ccc(I)cc1)C(=O)O)N[C@H](C(=O)O)c1ccc(O)cc1` [Compound 4OC5] here?
**A.** 85 nM

**Q.** For `O=C(O)CC[C@H](N[P@](=O)(O)OC[C@@H](NC(=O)c1ccccc1)C(=O)O)C(=O)O` [Compound 4P4J], which IC50 (GCPII; [6]) is on record?
**A.** 700 nM

**Q.** For `O=C(O)CC[C@H](NC(=O)N[C@@H](CCCC(=O)N(CCNC(=O)c1ccc(F)cc1)c1ccccc1)C(=O)O)C(=O)O` [CHEMBL4286872], which IC50 (GCPII; [5]) is on record?
**A.** 0.15 nM

**Q.** For `N[C@@H](Cn1oc(=O)[nH]c1=O)C(=O)O` [Compound 2JBK], which IC50 (GCPII; [6]) is on record?
**A.** 9500 nM

**Q.** Which IC50 (GCPII; [6]) does the source give for `O=C(O)CC[C@H](NC(=O)N[C@@H](CCCC(=O)N(CCNC(=O)c1ccc(F)nc1)c1ccccc1)C(=O)O)C(=O)O` [RNA 2-49-1] here?
**A.** 0.075 nM

**Q.** And the IC50 (GCPII; read-out: GCPII IC50)?
**A.** 0.08 nM

**Q.** Which IC50 (GCPII; [5]) does the source give for `O=C(O)CC[C@H](NC(=O)N[C@@H](CCCC(=O)NCCNC(=O)c1ccc(F)cc1)C(=O)O)C(=O)O` [CHEMBL4294773] here?
**A.** 0.94 nM

**Q.** Which IC50 (GCPII; [5]) does the source give for `N[C@@H](CCC(=O)N[C@@H](COP(=O)(O)O[C@@H](CCC(=O)O)C(=O)O)C(=O)O)C(=O)O` [CHEMBL1289263] here?
**A.** 0.55 nM

**Q.** For `CN(Cc1ccc(F)cc1)C(=O)CCC[C@H](NC(=O)N[C@@H](CCC(=O)O)C(=O)O)C(=O)O` [CHEMBL4283406], which IC50 (GCPII; [5]) is on record?
**A.** 0.64 nM

**Q.** Which Ki (GCPII; [7]) does the source give for `O=C(N[C@@H](CCCCNC(=O)c1ccc(I)cc1)C(=O)O)N[C@@H](Cc1ccco1)C(=O)O` [Compound 4OC3] here?
**A.** 5.3 nM

**Q.** For `CSCC[C@H](NC(=O)N[C@@H](CCCCNC(=O)c1ccc(I)cc1)C(=O)O)C(=O)O` [Compound 3SJF], which IC50 (GCPII; [6]) is on record?
**A.** 23 nM
